# Publication PMC11591893, “Exploring the Antidiabetic and Antihypertensive Potential of Peptides Derived from Bitter Melon Seed Hydrolysate” (Biomedicines, 2024)
# “Also recorded” adds a separate entry of the source. Where a SMILES comes first, the peptide text is derived from it. Where no end group is shown, it is not given here.
# Assays:
# [1] = biological target: T1, recombinant human dipeptidyl peptidase-IV (DPP4) (Homo sapiens, UniProt P27487); experiment: DPP4 inhibitory activity and IC50 (GP-pNA substrate, absorbance of pNA at 405 nm); assay type: biochemical; conditions: for DPP4 inhibitory activity / inhibition at 2000 µM: synthetic peptides at 2 mM; for IC50: synthetic peptides
# T1 construct: purchased Sigma–Aldrich Co
# Protocol: (§1) The DPP4 inhibitory activity was studied following Hung et al.. All the reagents and samples were dissolved in 0.1 M Tris-HCl buffer, pH 8. First, 25 µL of 1.6 mM GP-pNA was premixed with 25 µL of sample and incubated at 37 °C for 10 min. Then, 50 µL of 0.5 U/µL DPP4 was added. The reaction was set at 37 °C for one hour. 100 µL of 1 M sodium acetate at pH 4 was added to stop the enzymatic reaction. Using a PowerWave XS (Biotek®, Winooski, VT, USA) 96-well microplate reader, the absorbance of pNA, which was generated by the DPP4 and GP-pNA reactions, was measured at 405 nm. DPP4 inhibitory activity was examined by the following formula:(1) DPP4 inhibitory activity%=pNA(no inhibitor)−pNA(inhibitor)/pNA(no inhibitor)×100%,
# (§2) The absorbances of pNA obtained in the presence and absence of an inhibitor were referred to as pNA (inhibitor) and pNA (no inhibitor), respectively. The DPP4 half-maximal inhibitory concentration (DPP4 IC50) was determined by plotting at least five logarithmic concentrations of the inhibitor versus their DPP4 inhibition (%) to construct a nonlinear regression.
# DPP4 = conditions: cited from earlier work
# ACE = conditions: cited from earlier work
# [2] = biological target: T2, angiotensin-I-converting enzyme (ACE) from rabbit lungs (Oryctolagus cuniculus, UniProt P12822); experiment: Peptide inhibition mechanism toward ACE (Lineweaver–Burk plot); assay type: biochemical; conditions: HHL 0.625, 1.25, 5 mM
# T2 construct: angiotensin-I-converting enzyme (ACE) from rabbit lungs; purchased Sigma–Aldrich Co; host or cells: rabbit lung tissue
# T2 sequence (P12822 34-1310): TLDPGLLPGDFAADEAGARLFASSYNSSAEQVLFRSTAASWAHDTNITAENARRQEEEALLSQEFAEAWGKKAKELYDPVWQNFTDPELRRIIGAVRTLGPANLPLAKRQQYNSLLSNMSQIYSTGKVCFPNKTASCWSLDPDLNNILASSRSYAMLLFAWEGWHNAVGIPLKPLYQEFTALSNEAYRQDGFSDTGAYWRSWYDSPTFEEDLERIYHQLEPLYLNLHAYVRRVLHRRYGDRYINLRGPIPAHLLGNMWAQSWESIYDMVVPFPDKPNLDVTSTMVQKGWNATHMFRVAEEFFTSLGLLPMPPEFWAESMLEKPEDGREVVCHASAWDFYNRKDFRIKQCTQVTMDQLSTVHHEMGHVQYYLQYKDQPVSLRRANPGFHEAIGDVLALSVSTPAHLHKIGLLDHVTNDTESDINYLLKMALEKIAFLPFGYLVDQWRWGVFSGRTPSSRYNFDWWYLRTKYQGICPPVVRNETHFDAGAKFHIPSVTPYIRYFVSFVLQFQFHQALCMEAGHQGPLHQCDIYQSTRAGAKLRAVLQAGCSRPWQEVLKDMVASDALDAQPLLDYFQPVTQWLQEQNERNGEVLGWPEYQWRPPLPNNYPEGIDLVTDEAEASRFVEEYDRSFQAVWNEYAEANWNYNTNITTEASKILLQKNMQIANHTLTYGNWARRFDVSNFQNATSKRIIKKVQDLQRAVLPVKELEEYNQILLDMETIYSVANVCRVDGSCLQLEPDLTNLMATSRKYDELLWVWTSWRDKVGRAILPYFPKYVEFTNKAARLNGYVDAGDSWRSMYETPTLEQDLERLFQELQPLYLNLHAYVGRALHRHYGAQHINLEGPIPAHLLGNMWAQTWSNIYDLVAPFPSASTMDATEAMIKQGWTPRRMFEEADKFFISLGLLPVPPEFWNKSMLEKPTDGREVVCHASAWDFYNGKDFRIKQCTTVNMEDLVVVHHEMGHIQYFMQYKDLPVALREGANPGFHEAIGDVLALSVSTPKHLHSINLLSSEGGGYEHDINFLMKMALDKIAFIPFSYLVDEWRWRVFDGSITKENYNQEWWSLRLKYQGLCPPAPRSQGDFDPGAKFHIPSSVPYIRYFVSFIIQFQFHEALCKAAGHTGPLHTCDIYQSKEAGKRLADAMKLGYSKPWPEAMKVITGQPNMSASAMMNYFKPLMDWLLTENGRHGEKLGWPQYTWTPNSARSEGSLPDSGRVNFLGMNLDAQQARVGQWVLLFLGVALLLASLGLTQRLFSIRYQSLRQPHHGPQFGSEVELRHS
# Protocol: (§3) The ACE inhibitory activity was investigated following Cushman and Cheung, with some modifications. First, 30 µL of 2.5 mM HHL was premixed with 10 µL of the sample at 37 °C for 5 min. Then, 20 µL of 0.05 mU/µL ACE was added. The reaction was maintained at 37 °C for one hour. Afterward, 60 µL of 1 N HCl was added to stop the reaction, and 10 µL of 0.2 µg/µL ferulic acid was used as an internal standard. All the reagents and samples were dissolved in pH 8.3 ACE buffer (760 mM boric acid, 300 mM NaCl, and 200 mM NaOH). Using UV-Vis RP-HPLC (Hitachi High-Tech Co., Tokyo, Japan), the area of HA, as the product of ACE and HHL reactions, was measured at 228 nm. An elution with 23% ACN and 0.1% TFA was used at a flow rate of 1 mL/min for 15 min to separate the analytes. ACE inhibitory activity was determined by the following formula:(2) ACE inhibitory activity%=HA(no inhibitor)−HA(inhibitor)/HA(no inhibitor)×100%
# The inhibition mechanism of peptides on DPP4 and ACE was studied using the inhibitory assays described previously. […] Meanwhile, the HA production rate was determined with and without the inhibitor using HHL concentrations of 0.625, 1.25, and 5 mM to assess the peptide inhibition mechanism against ACE through a Lineweaver–Burk plot.
# [3] = biological target: T1, recombinant human dipeptidyl peptidase-IV (DPP4); experiment: Peptide inhibition mechanism toward DPP4 (Lineweaver–Burk plot); assay type: biochemical; conditions: GP-pNA 0.8, 1.6, 3.2 mM
# Protocol: as §1
# The inhibition mechanism of peptides on DPP4 and ACE was studied using the inhibitory assays described previously. The peptide inhibition mechanism toward DPP4 was identified by generating a Lineweaver–Burk plot using the production rates of pNA in the presence and absence of the inhibitor at GP-pNA concentrations of 0.8, 1.6, and 3.2 mM. Meanwhile, the HA production rate was determined with and without the inhibitor using HHL concentrations of 0.625, 1.25, and 5 mM to assess the peptide inhibition mechanism against ACE through a Lineweaver–Burk plot.
# [4] = biological target: T2, angiotensin-I-converting enzyme (ACE) from rabbit lungs; experiment: ACE inhibitory activity and IC50 (HHL substrate, HA by RP-HPLC); assay type: biochemical
# Protocol: as §3
# as §2, with “areas” for “absorbances”, “HA acquired” for “pNA obtained”, “HA” for “pNA”, “ACE” for “DPP4”, “(ACE” for “(DPP4”, “performed” for “determined”
# [5] = system: pepsin, trypsin and α-chymotrypsin; experiment: Stability against simulated gastrointestinal (SGI) digestion (pepsin, then trypsin and α-chymotrypsin; LC-MS); assay type: in vitro ADME; conditions: pepsin ninety minutes, then α-chymotrypsin and trypsin three hours, 37 °C
# Protocol: The peptide stability against SGI digestion was investigated by following the research of Gu and Wu, with some modifications. All the SGI enzyme-to-peptide ratios were fixed at 2%. The synthesized peptides MW4 and VF7 were dissolved in 35 mM NaCl buffer (pH 2.0) and digested by pepsin at 37 °C for ninety minutes, respectively. Next, the pH was adjusted to 7–8. Half of each sample was boiled for 15 min to terminate pepsin digestion. The other half of the sample was treated with trypsin and α-chymotrypsin and the reaction was continued at 37 °C for three hours, followed by boiling for 15 min to stop the reaction. An LC-MS analysis was employed to assess the resistance of peptides to SGI digestion.
# T1 sequence (P27487 whole entry): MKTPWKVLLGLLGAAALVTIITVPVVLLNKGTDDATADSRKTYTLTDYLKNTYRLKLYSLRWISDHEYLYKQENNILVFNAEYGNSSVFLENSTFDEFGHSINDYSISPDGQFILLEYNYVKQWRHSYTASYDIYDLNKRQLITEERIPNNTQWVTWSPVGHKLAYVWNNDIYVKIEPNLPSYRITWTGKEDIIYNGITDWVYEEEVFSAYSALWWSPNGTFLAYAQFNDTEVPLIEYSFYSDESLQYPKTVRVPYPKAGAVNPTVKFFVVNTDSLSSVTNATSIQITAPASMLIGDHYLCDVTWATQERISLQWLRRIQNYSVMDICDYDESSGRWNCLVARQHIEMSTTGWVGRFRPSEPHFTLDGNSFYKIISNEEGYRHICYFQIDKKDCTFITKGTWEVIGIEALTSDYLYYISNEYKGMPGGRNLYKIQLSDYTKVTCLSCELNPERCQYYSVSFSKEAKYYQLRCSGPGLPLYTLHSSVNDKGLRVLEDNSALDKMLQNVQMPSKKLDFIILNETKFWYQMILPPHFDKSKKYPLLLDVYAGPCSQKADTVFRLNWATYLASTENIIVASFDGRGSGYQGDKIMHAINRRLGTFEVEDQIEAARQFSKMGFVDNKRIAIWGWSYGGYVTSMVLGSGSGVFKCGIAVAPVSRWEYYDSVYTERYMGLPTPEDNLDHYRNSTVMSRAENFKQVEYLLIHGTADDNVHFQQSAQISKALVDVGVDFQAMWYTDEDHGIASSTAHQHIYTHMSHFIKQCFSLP
compound,measurement,setting,value
PLW [PW3],DPP4 inhibitory activity,[1],6%
ELF [EF3],DPP4 inhibitory activity,[1],4%
"MLPQNF-OH [MF6, MLPQNF]",IC50,[1],957 ± 39.2 µM
same,inhibition at 2000 µM,[1],68%
APLVSW,IC50,DPP4,145 µM
same,IC50,ACE,9.6 µM
PAGPF,IC50,DPP4,136 µM
LPSW,IC50,DPP4,270 µM
same,IC50,ACE,21 µM
"LFPNAGY-OH [LY7, LFPNAGY]",IC50,[1],913.6 ± 6.7 µM
same,inhibition at 2000 µM,[1],71%
HNLPVL [HL6],DPP4 inhibitory activity,[1],12%
"CC(C)C[C@H](N)C(=O)N[C@@H](Cc1ccccc1)C(=O)N[C@@H](Cc1ccc(O)cc1)C(=O)O [LY3, LFY] (H-Leu-Phe-Tyr-OH; N-terminus assumed)",IC50,[1],2100 ± 55.2 µM
same,inhibition at 2000 µM,[1],49%
WALPTQSW [peptide derived from Inca nut seed GP hydrolysate],IC50,DPP4,132 µM
same,IC50,ACE,4.7 µM
"CSCC[C@H](N)C(=O)N1CCC[C@H]1C(=O)N[C@@H](Cc1c[nH]cn1)C(=O)N[C@@H](Cc1c[nH]c2ccccc12)C(=O)O [MW4, MPHW] (H-MPHW-OH; N-terminus assumed)",ACE inhibition mechanism,[2],competitive inhibitor
same,DPP4 inhibition mechanism,[3],competitive inhibitors
same,IC50,[4],172 ± 10.6 µM
same,Stability during simulated gastrointestinal digestion,[5],remained stable; also recorded: neither MW4 nor VF7 was hydrolyzed
same,IC50,[1],128 ± 1.3 µM
same,inhibition at 2000 µM,[1],97%
"VPSGAPF-OH [VF7, VPSGAPF]",DPP4 inhibition mechanism,[3],competitive inhibitors
same,inhibition at 200 µM,[4]; 200 µM,19%
same,Stability during simulated gastrointestinal digestion,[5],remained stable; also recorded: neither MW4 nor VF7 was hydrolyzed
same,IC50,[1],151 ± 3.4 µM
same,inhibition at 2000 µM,[1],90%
"RATLPF-OH [RF6, RATLPF]",IC50,[1],1670 ± 45.4 µM
same,inhibition at 2000 µM,[1],56%
